According to US20160120863A1, “SLC2A TRANSPORTER INHIBITORS” (IOMET PHARMA LTD., priority 2013, published 2016):

Tests used:
Assay type in all cases: cell-based
human GLUT1 = biological target: T1, human GLUT1 (Homo sapiens, UniProt P11166); assay: [3H]-deoxy-D-glucose uptake assay, GLUT1; details: [3H]-deoxy-D-glucose uptake in HEK293 cells stably expressing human GLUT1
T1 construct: expressed in transfected cells
T1 sequence (P11166 1-492): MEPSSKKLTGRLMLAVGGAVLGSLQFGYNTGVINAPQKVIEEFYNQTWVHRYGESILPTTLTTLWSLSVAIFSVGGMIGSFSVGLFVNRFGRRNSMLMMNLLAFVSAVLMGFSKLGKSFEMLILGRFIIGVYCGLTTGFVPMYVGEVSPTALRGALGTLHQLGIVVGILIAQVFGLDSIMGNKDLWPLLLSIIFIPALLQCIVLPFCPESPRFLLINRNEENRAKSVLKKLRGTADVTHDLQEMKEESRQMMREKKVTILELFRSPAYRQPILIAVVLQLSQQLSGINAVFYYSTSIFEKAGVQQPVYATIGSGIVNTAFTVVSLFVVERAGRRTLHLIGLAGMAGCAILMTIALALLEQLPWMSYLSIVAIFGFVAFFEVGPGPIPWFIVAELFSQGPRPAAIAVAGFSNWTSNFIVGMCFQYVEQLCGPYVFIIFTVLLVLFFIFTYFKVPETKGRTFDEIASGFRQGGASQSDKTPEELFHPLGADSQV
Outline: (§1)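 HEK293 cells stably overexpressing human GLUT1 or GLUT2, seeded at 60,000 per well, treated with compounds in glucose-free uptake buffer for 30 min at 37 °C. [3H]-deoxy-D-glucose uptake quantified by scintillation counting after ice-cold PBS washes; IC50 determined.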

human GLUT4 = biological target: T2, human GLUT4 (Homo sapiens, UniProt P14672); assay: [3H]-deoxy-D-glucose uptake assay, GLUT4; details: [3H]-deoxy-D-glucose uptake in HEK293 cells stably expressing human GLUT4
T2 construct: expressed in transfected cells
T2 sequence (P14672 1-509): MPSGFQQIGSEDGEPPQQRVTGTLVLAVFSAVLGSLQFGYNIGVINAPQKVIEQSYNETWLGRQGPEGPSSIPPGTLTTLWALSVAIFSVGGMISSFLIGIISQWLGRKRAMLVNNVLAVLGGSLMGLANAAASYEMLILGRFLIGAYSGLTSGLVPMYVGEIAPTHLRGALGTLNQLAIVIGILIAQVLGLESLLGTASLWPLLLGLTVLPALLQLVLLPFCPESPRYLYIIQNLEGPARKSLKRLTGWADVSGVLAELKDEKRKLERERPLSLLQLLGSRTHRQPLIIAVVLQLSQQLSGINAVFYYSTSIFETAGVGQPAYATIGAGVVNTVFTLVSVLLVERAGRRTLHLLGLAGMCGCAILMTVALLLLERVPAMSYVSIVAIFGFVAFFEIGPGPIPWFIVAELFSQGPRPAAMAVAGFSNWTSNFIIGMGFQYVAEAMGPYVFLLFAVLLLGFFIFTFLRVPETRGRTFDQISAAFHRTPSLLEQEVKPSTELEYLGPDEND
Procedure: (§2) HEK293 cells were engineered to stably express either human GLUT1, GLUT2, GLUt3 or GLUT4 by transfection with the pReceiver-Lv105 plasmid, containing either hGLUT1, hGLUT2, hGLUT3, or hGLUT4 gene constructs with lipofectamine 2000, hGLUT1- hGLUT2- hGLUT3- or hGLUT4-overexpressing polyclonal populations were isolated under purinomycin selective pressure (1 μg/ml) and maintained in Dulbecco's modified Eagle's medium supplemented with 1 μg/ml purinomycin+10% foetal bovine serum (FBS).
(§3) 60,000 cells per well were seeded overnight into poly-D-lysine coasted 96-well plates. Following media removal, cells were washed twice in warm glucose-free uptake buffer (25 mM HEPES/KOH pH 7.4, 125 mM NaCl, 4.8 mM KCl, 1.2 mM MgSO4, 1.2 mM CaCl2, 1.2 mM KH2PO4). 90 μl of test compounds were added in glucose-free uptake buffer and cells were incubated at 37° C. for 30 min. 10 μl of [3H]-deoxy-D-glucose (0.25 μCi, 125 μM final assay concentration) was then added per well in glucose-free uptake buffer and uptake was allowed to proceed at 37° C. for 30 min.
(§4) Cells were then washed twice with ice-cold PBS and 100 μl of Microscint-20 was added per well. Glucose uptake was quantified with a scintillation counter. The half maximal inhibitory concentration (IC50) (a measure of the effectiveness of the test compound in inhibiting glucose uptake) was determined.

human GLUT3 = biological target: T3, human GLUT3 (Homo sapiens, UniProt P11169); assay: [3H]-deoxy-D-glucose uptake assay, GLUT3; details: [3H]-deoxy-D-glucose uptake in HEK293 cells stably expressing human GLUT3
T3 construct: expressed in transfected cells
T3 sequence (P11169 1-496): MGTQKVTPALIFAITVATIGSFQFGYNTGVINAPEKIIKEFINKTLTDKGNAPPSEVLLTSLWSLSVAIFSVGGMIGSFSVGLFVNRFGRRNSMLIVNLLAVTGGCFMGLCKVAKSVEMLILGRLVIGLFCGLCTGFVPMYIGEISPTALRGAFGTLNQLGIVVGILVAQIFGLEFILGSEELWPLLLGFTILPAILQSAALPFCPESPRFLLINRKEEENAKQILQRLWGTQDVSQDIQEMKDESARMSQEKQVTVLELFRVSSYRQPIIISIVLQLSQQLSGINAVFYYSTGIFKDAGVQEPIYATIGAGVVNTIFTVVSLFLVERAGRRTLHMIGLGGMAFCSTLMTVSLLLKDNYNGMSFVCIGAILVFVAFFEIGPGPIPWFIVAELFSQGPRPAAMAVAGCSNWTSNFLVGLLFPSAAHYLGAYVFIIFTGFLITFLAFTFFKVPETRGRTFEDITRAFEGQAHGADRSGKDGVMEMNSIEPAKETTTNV
Procedure: as §2, §3, §4

human GLUT2 = biological target: T4, human GLUT2 (Homo sapiens, UniProt P11168); assay: [3H]-deoxy-D-glucose uptake assay, GLUT2; details: [3H]-deoxy-D-glucose uptake in HEK293 cells stably expressing human GLUT2
T4 construct: expressed in transfected cells
T4 sequence (P11168 1-524): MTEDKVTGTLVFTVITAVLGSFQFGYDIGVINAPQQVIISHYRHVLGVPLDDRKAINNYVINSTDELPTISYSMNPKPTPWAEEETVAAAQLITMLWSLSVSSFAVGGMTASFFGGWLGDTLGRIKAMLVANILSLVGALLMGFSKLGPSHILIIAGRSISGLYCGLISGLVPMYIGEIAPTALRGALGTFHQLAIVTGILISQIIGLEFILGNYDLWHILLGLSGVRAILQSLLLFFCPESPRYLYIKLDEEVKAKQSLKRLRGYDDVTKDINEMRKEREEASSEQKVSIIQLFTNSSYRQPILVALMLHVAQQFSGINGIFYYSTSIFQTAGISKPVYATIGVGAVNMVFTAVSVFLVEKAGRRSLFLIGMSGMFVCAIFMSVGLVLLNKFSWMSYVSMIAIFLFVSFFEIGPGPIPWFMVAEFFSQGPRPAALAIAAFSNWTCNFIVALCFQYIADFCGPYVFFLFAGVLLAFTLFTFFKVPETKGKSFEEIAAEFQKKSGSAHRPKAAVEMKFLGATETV
Outline: as §1

Row | SMILES | GLUT1 pIC50 (human GLUT1) | GLUT4 pIC50 (human GLUT4) | GLUT3 pIC50 (human GLUT3) | GLUT2 pIC50 (human GLUT2)
1 | CS(=O)(=O)Nc1ccc2nc(-c3ccc(Cl)cc3Cl)c(CN3CCN(C(=O)C4COC4)CC3)n2c1 [Compound 334] | +++ (pIC50 ≧ 6.00) | +++ (pIC50 ≧ 6.00) | +++ (pIC50 ≧ 6.00) | ++ (pIC50 5.00-5.99)
2 | CN(c1ccc2nc(-c3ccc(Cl)cc3Cl)c(CN3CCN(C(=O)C4COC4)CC3)n2c1)S(C)(=O)=O [Compound 335] | +++ (pIC50 ≧ 6.00) | +++ (pIC50 ≧ 6.00) | +++ (pIC50 ≧ 6.00) | +++ (pIC50 ≧ 6.00)
3 | COCC(=O)N1CCN(Cc2c(-c3ccc(Cl)cc3Cl)nc3ccc(NS(C)(=O)=O)cn23)CC1 [Compound 336] | +++ (pIC50 ≧ 6.00) | +++ (pIC50 ≧ 6.00) | +++ (pIC50 ≧ 6.00) | ++ (pIC50 5.00-5.99)
4 | CC(=O)N1CCN(Cc2c(-c3ccc(Cl)cc3Cl)nc3ccc(N4CCCS4(=O)=O)cn23)CC1 [Compound 339] | +++ (pIC50 ≧ 6.00) | +++ (pIC50 ≧ 6.00) | +++ (pIC50 ≧ 6.00) | +++ (pIC50 ≧ 6.00)
5 | CC(=O)N1CCN(Cc2c(-c3ccc(Cl)cc3)nc3ccc(N(C)S(=O)(=O)C(C)C)cn23)CC1 [Compound 340] | +++ (pIC50 ≧ 6.00) | +++ (pIC50 ≧ 6.00) | +++ (pIC50 ≧ 6.00) | ++ (pIC50 5.00-5.99)
6 | CCCS(=O)(=O)N(C)c1ccc2nc(-c3ccc(Cl)cc3)c(CN3CCN(C(C)=O)CC3)n2c1 [Compound 341] | +++ (pIC50 ≧ 6.00) | +++ (pIC50 ≧ 6.00) | +++ (pIC50 ≧ 6.00) | +− (pIC50 < 4.00)
7 | CN(c1ccc2nc(-c3ccc(Cl)cc3Cl)c(CN3CCn4ncnc4C3)n2c1)S(C)(=O)=O [Compound 346] | +++ (pIC50 ≧ 6.00) | +++ (pIC50 ≧ 6.00) | +++ (pIC50 ≧ 6.00) | ++ (pIC50 5.00-5.99)
8 | CC(=O)N1CCN(Cc2c(-c3ccc(Cl)cc3)nc3ccc(S(=O)(=O)N(C)C)cn23)CC1 [Compound 350] | +++ (pIC50 ≧ 6.00) | +++ (pIC50 ≧ 6.00) | +++ (pIC50 ≧ 6.00) | ++ (pIC50 5.00-5.99)
9 | CNS(=O)(=O)c1ccc2nc(-c3ccc(Cl)cc3)c(CN3CCN(C(C)=O)CC3)n2c1 [Compound 351] | +++ (pIC50 ≧ 6.00) | +++ (pIC50 ≧ 6.00) | +++ (pIC50 ≧ 6.00) | ++ (pIC50 5.00-5.99)
10 | CCN(c1ccc2nc(-c3ccc(Cl)cc3)c(CN3CCN(C(C)=O)CC3)n2c1)S(C)(=O)=O [Compound 353] | +++ (pIC50 ≧ 6.00) | +++ (pIC50 ≧ 6.00) | +++ (pIC50 ≧ 6.00) | ++ (pIC50 5.00-5.99)
11 | CN(c1ccc2nc(-c3ccc(Cl)cc3Cl)c(CN3CCNC(=O)C3)n2c1)S(C)(=O)=O [Compound 355] | +++ (pIC50 ≧ 6.00) | +++ (pIC50 ≧ 6.00) | +++ (pIC50 ≧ 6.00) | +++ (pIC50 ≧ 6.00)
12 | CS(=O)(=O)Nc1ccc2nc(-c3ccc(Cl)cc3Cl)c(CN3CCN(C(=O)c4ccnnc4)CC3)n2c1 [Compound 356] | +++ (pIC50 ≧ 6.00) | +++ (pIC50 ≧ 6.00) | +++ (pIC50 ≧ 6.00) | +++ (pIC50 ≧ 6.00)
13 | CS(=O)(=O)Nc1ccc2nc(-c3ccc(Cl)cc3Cl)c(CN3CCN(C(=O)c4ccc(F)cc4)CC3)n2c1 [Compound 360] | +++ (pIC50 ≧ 6.00) | +++ (pIC50 ≧ 6.00) | +++ (pIC50 ≧ 6.00) | ++ (pIC50 5.00-5.99)
14 | CC(C)(O)C(=O)N1CCN(Cc2c(-c3ccc(Cl)cc3Cl)nc3ccc(NS(C)(=O)=O)cn23)CC1 [Compound 361] | +++ (pIC50 ≧ 6.00) | +++ (pIC50 ≧ 6.00) | +++ (pIC50 ≧ 6.00) | ++ (pIC50 5.00-5.99)
15 | CN(c1ccc2nc(-c3ccc(Cl)cc3Cl)c(CN3CCN(C(=O)c4ccc(F)cc4)CC3)n2c1)S(C)(=O)=O [Compound 363] | +++ (pIC50 ≧ 6.00) | +++ (pIC50 ≧ 6.00) | +++ (pIC50 ≧ 6.00) | +++ (pIC50 ≧ 6.00)
16 | CC(=O)N1CCN(Cc2c(-c3ccc(Cl)cc3)nc3ccc(N(C(C)C)S(C)(=O)=O)cn23)CC1 [Compound 365] | +++ (pIC50 ≧ 6.00) | +++ (pIC50 ≧ 6.00) | +++ (pIC50 ≧ 6.00) | ++ (pIC50 5.00-5.99)
17 | CC(C)c1cn2c(CN3CCOCC3)c(-c3ccc(Cl)cc3Cl)nc2cn1 [Compound 366] | +++ (pIC50 ≧ 6.00) | +++ (pIC50 ≧ 6.00) | +++ (pIC50 ≧ 6.00) | +++ (pIC50 ≧ 6.00)
18 | CC(=O)N1CCN(Cc2c(-c3ccc(Cl)cc3Cl)nc3ccc(N(C(F)F)S(C)(=O)=O)cn23)CC1 [Compound 367] | +++ (pIC50 ≧ 6.00) | +++ (pIC50 ≧ 6.00) | +++ (pIC50 ≧ 6.00) | +++ (pIC50 ≧ 6.00)
19 | CC(=O)N1CCN(Cc2c(-c3ccc(Cl)cc3)nc3ccc(N(C(F)F)S(C)(=O)=O)cn23)CC1 [Compound 368] | +++ (pIC50 ≧ 6.00) | +++ (pIC50 ≧ 6.00) | +++ (pIC50 ≧ 6.00) | +++ (pIC50 ≧ 6.00)
